Source: publication PMC11167047 (Cell Death Discovery, 2024)

Experiments:
Assay in all cases: kinome screen (33PanQinase)
Assay type in all cases: biochemical
MATK = biological target: T1, MATK (Homo sapiens, UniProt P42679)
T1 construct: purchased Reaction Biology Europe GmbH (formerly ProQinase)
T1 sequence (P42679 1-507): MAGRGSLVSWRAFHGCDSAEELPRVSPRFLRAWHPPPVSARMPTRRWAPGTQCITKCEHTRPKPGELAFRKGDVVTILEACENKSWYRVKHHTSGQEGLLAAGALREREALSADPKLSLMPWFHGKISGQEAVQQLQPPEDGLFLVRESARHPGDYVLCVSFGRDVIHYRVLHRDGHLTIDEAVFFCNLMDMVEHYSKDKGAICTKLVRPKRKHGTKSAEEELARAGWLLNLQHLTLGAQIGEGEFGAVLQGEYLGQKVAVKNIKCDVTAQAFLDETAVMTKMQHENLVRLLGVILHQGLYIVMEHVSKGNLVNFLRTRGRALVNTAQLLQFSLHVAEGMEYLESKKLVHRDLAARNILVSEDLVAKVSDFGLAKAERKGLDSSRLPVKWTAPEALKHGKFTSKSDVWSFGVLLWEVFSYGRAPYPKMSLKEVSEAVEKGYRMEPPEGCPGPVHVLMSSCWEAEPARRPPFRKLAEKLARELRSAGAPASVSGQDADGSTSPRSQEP
Protocol: (§1) The Kinome Screening was performed by Reaction Biology Europe GmbH (http://reactionbiology.com; Freiburg i. Br., Germany).

MKK4 = biological target: T2, MKK4 (Homo sapiens, UniProt P45985)
T2 construct: purchased Reaction Biology Europe GmbH (formerly ProQinase)
T2 sequence (P45985 1-399): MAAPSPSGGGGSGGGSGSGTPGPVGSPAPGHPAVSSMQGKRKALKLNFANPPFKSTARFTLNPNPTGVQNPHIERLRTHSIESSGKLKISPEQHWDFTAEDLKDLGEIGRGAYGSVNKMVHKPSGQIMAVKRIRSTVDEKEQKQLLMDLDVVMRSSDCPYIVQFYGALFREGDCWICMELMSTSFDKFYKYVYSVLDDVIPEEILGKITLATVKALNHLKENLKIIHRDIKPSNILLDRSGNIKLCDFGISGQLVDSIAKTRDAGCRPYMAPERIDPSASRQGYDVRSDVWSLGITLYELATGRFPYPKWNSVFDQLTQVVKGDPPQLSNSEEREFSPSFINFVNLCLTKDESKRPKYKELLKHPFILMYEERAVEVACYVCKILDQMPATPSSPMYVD
Protocol: as §1

PDGFRβ = biological target: T3, PDGFRβ (Homo sapiens, UniProt P09619)
T3 construct: purchased Reaction Biology Europe GmbH (formerly ProQinase)
Protocol: as §1

PRKG1 = biological target: T4, PRKG1 (Homo sapiens, UniProt Q13976)
T4 construct: purchased Reaction Biology Europe GmbH (formerly ProQinase)
T4 sequence (Q13976 1-671): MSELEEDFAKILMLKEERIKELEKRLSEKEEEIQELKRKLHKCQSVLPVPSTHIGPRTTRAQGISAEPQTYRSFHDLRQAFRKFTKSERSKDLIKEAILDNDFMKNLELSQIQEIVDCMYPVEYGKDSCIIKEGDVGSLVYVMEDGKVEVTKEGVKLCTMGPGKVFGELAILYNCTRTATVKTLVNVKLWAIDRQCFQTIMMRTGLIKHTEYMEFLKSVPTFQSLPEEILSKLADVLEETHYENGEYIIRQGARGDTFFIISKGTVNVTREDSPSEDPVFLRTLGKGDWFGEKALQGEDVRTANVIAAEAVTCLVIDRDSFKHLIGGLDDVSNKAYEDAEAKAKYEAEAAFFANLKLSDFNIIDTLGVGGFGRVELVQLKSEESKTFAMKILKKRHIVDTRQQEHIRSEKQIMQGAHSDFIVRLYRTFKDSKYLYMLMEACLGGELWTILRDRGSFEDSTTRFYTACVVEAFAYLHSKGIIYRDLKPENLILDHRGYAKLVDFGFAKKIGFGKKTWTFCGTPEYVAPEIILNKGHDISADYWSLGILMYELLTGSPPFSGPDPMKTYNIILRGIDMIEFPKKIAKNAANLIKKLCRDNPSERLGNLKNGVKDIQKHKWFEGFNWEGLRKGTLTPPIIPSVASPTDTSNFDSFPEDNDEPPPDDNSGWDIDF
Protocol: as §1

ULK2 = biological target: T5, ULK2 (Homo sapiens, UniProt Q8IYT8)
T5 construct: purchased Reaction Biology Europe GmbH (formerly ProQinase)
T5 sequence (Q8IYT8 1-1036): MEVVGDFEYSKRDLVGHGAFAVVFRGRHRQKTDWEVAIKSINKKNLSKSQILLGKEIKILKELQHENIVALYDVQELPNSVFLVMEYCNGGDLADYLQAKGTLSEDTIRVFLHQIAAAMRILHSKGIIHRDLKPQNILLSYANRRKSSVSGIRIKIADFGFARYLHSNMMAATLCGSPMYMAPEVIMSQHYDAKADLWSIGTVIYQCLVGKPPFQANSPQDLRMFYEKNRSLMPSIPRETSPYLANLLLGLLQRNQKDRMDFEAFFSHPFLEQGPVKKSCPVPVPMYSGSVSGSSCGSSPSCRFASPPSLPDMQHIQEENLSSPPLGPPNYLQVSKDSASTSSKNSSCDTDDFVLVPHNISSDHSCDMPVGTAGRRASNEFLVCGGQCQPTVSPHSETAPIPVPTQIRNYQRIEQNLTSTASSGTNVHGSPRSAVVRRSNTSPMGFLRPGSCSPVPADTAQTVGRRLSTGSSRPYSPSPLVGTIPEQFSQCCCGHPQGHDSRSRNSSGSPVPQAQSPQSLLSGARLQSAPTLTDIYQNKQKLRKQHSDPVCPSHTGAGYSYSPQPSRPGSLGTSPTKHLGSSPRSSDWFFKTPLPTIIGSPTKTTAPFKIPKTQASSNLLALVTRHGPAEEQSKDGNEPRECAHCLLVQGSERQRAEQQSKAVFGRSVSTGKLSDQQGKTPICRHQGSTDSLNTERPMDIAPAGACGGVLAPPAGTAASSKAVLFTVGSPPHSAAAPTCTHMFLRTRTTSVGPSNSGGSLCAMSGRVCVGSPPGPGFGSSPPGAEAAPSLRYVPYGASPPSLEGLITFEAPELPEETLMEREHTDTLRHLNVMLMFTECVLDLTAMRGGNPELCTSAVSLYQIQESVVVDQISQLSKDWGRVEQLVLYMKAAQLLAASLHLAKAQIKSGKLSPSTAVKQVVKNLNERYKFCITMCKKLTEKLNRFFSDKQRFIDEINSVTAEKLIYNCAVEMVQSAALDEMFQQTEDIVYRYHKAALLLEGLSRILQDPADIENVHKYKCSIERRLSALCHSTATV
Protocol: as §1

T3 sequence (P09619 33-1106): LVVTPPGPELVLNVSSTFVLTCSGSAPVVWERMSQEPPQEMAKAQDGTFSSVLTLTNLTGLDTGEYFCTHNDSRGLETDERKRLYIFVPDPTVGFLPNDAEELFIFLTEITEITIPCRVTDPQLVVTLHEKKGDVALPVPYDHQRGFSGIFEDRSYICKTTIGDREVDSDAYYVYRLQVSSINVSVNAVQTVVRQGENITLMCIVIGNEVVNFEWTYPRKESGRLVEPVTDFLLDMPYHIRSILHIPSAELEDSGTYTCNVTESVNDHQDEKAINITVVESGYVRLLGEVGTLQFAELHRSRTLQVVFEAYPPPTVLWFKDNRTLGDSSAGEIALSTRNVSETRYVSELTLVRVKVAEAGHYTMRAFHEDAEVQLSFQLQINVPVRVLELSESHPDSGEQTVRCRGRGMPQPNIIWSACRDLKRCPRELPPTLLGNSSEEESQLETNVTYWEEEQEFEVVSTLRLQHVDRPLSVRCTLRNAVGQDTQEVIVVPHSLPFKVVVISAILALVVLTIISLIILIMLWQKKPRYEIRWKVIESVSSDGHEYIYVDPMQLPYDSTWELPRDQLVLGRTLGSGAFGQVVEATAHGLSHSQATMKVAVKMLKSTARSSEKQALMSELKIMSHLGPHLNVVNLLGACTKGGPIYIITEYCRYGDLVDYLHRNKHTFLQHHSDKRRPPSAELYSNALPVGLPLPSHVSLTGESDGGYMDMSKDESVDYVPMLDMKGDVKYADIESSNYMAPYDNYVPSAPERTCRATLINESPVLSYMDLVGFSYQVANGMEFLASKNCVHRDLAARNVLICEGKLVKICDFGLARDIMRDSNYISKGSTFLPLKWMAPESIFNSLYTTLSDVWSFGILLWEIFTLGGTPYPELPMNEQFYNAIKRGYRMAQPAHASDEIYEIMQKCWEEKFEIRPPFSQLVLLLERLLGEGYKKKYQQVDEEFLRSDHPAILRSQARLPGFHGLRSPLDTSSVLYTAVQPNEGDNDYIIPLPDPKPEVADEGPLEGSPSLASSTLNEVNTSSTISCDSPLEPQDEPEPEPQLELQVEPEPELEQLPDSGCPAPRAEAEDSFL

SMILES | residual kinase activity (MATK; 0.03 µM) | residual kinase activity (MATK; 0.3 µM) | residual kinase activity (MKK4; 0.03 µM) | residual kinase activity (MKK4; 0.3 µM) | residual kinase activity (PDGFRβ; 0.03 µM) | residual kinase activity (PDGFRβ; 0.3 µM) | residual kinase activity (PRKG1; 0.03 µM) | residual kinase activity (PRKG1; 0.3 µM) | residual kinase activity (ULK2; 0.03 µM) | residual kinase activity (ULK2; 0.3 µM) | residual kinase activity (MATK; 3 µM) | residual kinase activity (MKK4; 3 µM) | residual kinase activity (PDGFRβ; 3 µM) | residual kinase activity (PRKG1; 3 µM) | residual kinase activity (ULK2; 3 µM)
COc1ccnc2[nH]cc(-c3cc(N)nc(N)c3)c12 [meriolin 16] | 107 % of control | 90 % of control | 86 % of control | 66 % of control | 93 % of control | 75 % of control | 75 % of control | 30 % of control | 96 % of control | 54 % of control | – | – | – | – | –
c1ccc(CNc2cc(-c3c[nH]c4ncccc34)ccn2)cc1 [meriolin 36] | – | 134 % of control | – | 45 % of control | – | 24 % of control | – | 6 % of control | – | 82 % of control | 94 % of control | 9 % of control | 4 % of control | 1 % of control | 45 % of control
